Laboratory results taken from patent US20190256929A1, “PHARMACODYNAMIC BIOMARKERS FOR PERSONALIZED CANCER CARE USING EPIGENETIC MODIFYING AGENTS” (ORYZON GENOMICS, S.A., priority 2016, published 2019).

System: panel of 14 cell lines (small cell lung cancer, non-small-cell lung cancer, acute myelogenic leukemia, acute lymphoblastic T-cell leukemia)
Assay: RNA-seq differential gene expression of PD markers in a panel of 14 cell lines
Type: cell-based, human
Details: 5 nM, 6 days
Protocol: A panel of 14 cell lines was treated with (trans)-N1-((1R,2S)-2-phenylcyclopropyl)cyclohexane-1,4-diamine (5 nM) or control vehicle for 6 days. The panel included eight small cell lung cancer cell lines (COLO 668, DMS 53, NCI-H146, NCI-H187, NCI-H446, NCI-H510A, NCI-H1417, SHP-77), two non-small-cell lung cancer cell lines (CAL-12T, NCI-H441), two acute myelogenic leukemia cell lines (KASUMI, OCI-AML2), and two acute lymphoblastic T-cell leukemia cell lines (JURKAT, SUP-T1).
Each cell line-treatment pair contained two to four biological replicates.
Expression data were obtained from whole transcriptomic RNA sequencing (RNA-seq) by Illumina, Inc. (San Diego, Calif.). The Illumina HiSeq machine generates raw base calls in reads of 50 or 100 bp length, which are subjected to several data analysis steps. The RNA-seq is conducted at 40 to 50 million reads per sample. This number provides relatively high sensitivity to detect low-expressed genes while allowing for cost-effective multiplexing of samples. RNA is prepared by standard kits and RNA libraries by polyA TruSeq Illumina kits. 100 ng of mRNA per cell line is used for each RNA-seq reaction. A number of quality control procedures are applied to the RNA-seq data for each sample. The Illumina HiSeq software reports the total number of clusters (DNA fragments) loaded in each lane, percent passing sequencing quality filters (which identifies errors due to overloading and sequencing chemistry), a phred quality score for each base of each sequence read, overall average phred scores for each sequencing cycle, and overall percent error (based on alignment to the reference genome). For each RNA-seq sample, the percentage of reads that contain mitochondrial and ribosomal RNA was calculated. The FASTQC package was used to provide additional QC metrics (base distribution, sequence duplication, overrepresented sequences, and enriched kmers) and a graphical summary. Raw reads were aligned against the human genome (hg19) using GSNAP and recommended options for RNASeq data. In addition to the genome sequence, GSNAP is given a database of human splice junctions and transcripts based on Ensembl v73. Resulting SAM files are then converted to sorted BAM files using Samtools. Gene expression values are calculated both as RPKM values following (Mortazavi A. et al. (2008) Nature Methods 5:621-628) and as read counts.
Differential gene expression analysis was performed using the DESeq2 package (Love M. I. et al. (2014) Genome Biology 15:550). Read counts from RNA-seq data were analyzed via a multi-factor generalized linear model of the negative binomial family, considering both treatment and the cell line type as factors that explain the changes in gene expression values.
The following filtering process was applied to identify genes that can serve as PD markers in surrogate tissues (skin or blood): • 1. […] The minimal expression level of the gene in normal blood and skin tissues was greater than one read per kilobase per million reads (RPKM, Mortazavi et al.), as obtained from the Genotype-Tissue Experssion (GTEx) project (The GTEx Consortium (2015) Science 348(6235):648-660). • 4. The minimal expression level of the gene in PBMC tissues was greater than 20 fragments per kilobase per million (FPKM; Trapnell C. et al. (2010) Nature Biotechnology 28:511-515) as obtained from the Ohmomo et al. study (Ohmomo H. et al. (2014) PLOS ONE 9(8):1-11). • 5. The gene is a target of LSD1, as determined by chromatin immunoprecipitation (ChIP) assay from the Adamo et al. study, or interacts with the LSD1 gene, as annotated by the BioGRID database (thebiogrid.org).
Additionally, we analyzed differential gene expression for a set of 35 genes which were previously identified as predictive biomarkers of response to LSD1 treatment.
Differentially expressed pathway analysis was done by the MetaBase R Library (Thompson Reuters).

[1] = RNA-seq, median across all cell lines, vs vehicle

N[C@H]1CC[C@H](N[C@@H]2C[C@H]2c2ccccc2)CC1 [RG6016, (trans)-N1-((1R,2S)-2-phenylcyclopropyl)cyclohexane-1,4-diamine]
ASCL1 differential gene expression after treatment (in words) (RNA-seq): very significantly down-regulated
GRP differential gene expression after treatment (in words) (RNA-seq): very significantly down-regulated
CNN2 Median Log2 FC [1]: 0.35
DENND5A Median Log2 FC [1]: 0.32
NOTCH1 Median Log2 FC [1]: 0.49
VIM Median Log2 FC [1]: 0.46
ZFP36L1 Median Log2 FC [1]: 0.27
ASCL1 Median Log2 FC (RNA-seq, vs vehicle): −0.16
GRP Median Log2 FC (RNA-seq, vs vehicle): −0.26
development NOTCH signaling pathway, differentially expressed pathway analysis (MetaBase R Library, RNA-seq data): one of the most significantly differentially expressed pathway
